Experimental data: article PMC12655551, “Design, Synthesis, and Evaluation of Pyrrole-Based Selective MAO-B Inhibitors with Additional AChE Inhibitory and Neuroprotective Properties Identified via Virtual Screening” (Pharmaceuticals, 2025)

Key:
[1] = target: T1, AChE (Electrophorus electricus, UniProt O42275); experiment: biochemical; format: biochemical; details: for inhibition at 200 µM: 200 µM compound; for IC50: means ± SD of three experiments
T1 construct: purchased Sigma-Aldrich, Hamburg, Germany
T1 sequence (O42275 24-633): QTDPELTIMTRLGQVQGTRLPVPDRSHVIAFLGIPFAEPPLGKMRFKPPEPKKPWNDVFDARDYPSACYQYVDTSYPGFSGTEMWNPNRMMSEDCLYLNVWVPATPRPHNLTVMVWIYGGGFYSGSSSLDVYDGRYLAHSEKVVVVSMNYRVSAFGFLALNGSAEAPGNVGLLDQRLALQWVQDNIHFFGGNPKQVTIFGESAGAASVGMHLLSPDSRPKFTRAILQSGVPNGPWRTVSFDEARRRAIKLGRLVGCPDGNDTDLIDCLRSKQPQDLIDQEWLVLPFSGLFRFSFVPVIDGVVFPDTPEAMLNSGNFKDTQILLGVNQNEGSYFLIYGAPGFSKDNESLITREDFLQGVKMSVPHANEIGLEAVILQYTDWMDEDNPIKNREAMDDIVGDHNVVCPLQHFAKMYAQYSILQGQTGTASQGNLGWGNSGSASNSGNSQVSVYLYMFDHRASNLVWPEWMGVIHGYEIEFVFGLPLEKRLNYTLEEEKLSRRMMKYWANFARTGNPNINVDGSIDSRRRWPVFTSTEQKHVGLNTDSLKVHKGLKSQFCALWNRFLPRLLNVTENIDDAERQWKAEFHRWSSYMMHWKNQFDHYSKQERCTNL
Experimental: (§1) AChE and BChE inhibitory activity of the newly synthesized pyrrole-based compounds was measured using the microplate assay described by Ellman et al. with the modifications added by López et al.. The compounds were tested at concentrations between 0.01 and 200 μM. First, they were dissolved in phosphate buffer (PBS) (8 mM K2HPO4, 2.3 mM NaH2PO4, 0.15 M NaCl, pH 7.5), assisted by the addition of no more than 5% MeOH. Then, they were serially diluted with PBS to provide the concentration range needed. Acetylcholinesterase from Electrophorus electricus and butyrylcholinesterase from equine serum (Sigma-Aldrich, Hamburg, Germany) were used with a substrate solution of 5,5′-dithiobis(2-nitrobenzoic acid) (DTNB) with acetylthiocholine iodide (ATCI) or butyrylthiocholine iodide (BTCI), respectively (0.04 M Na2HPO4, 0.2 mM DTNB, 0.24 mM ATCI or BTCI, pH 7.5). A total of 50 μL of AChE or BChE (0.25 U/mL, in PBS) and 50 μL of the tested compound solution were added to the wells. Incubation of the plates was performed at room temperature for 30 min. Then, 100 μL of substrate solution was added to start the enzymatic reaction. […] Enzyme activity was calculated as an inhibition percentage compared to an assay including buffer instead of an inhibitor.

[2] = target: T2, recombinant human MAO-B (hMAOB) (Homo sapiens, UniProt P27338); experiment: biochemical; format: biochemical; details: for inhibition at 1 µM: 1 µM compound
T2 sequence (P27338 1-520): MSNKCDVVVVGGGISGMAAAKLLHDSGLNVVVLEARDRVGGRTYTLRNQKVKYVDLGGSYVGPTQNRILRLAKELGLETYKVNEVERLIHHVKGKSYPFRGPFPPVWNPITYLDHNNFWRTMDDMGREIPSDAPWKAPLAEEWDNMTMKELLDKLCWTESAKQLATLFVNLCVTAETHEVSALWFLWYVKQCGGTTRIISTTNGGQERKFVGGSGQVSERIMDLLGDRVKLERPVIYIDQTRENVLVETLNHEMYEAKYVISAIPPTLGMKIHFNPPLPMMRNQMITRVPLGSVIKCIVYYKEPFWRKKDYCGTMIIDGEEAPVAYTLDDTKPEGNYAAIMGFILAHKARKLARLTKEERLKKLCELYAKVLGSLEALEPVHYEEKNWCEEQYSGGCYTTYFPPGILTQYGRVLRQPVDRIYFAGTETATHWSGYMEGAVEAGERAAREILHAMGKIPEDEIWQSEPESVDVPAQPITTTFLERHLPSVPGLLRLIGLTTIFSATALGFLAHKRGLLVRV
Experimental: (§2) Monoamine oxidase (MAO) activity for both recombinant human MAO-A (hMAOA) and MAO-B (hMAOB) was assessed using a fluorometric assay based on the Amplex® UltraRed reagent. This method, originally reported by Bautista-Aguilera et al. and later adapted with minor changes by Kasabova-Angelova et al., detects hydrogen peroxide or peroxidase activity present in enzymes or biological samples. In this assay, Amplex® Red reacts in a 1:1 molar ratio with hydrogen peroxide in the presence of peroxidase, producing the red-fluorescent compound resorufin. Due to resorufin’s strong extinction coefficient (58,000 ± 5000 cm^−1·M^−1), measurements could be accurately taken using either fluorometric or spectrophotometric methods. […] The control conditions included the use of purified hMAOA or hMAOB in reaction buffer, enzyme solutions with hydrogen peroxide, and buffer alone. All the test compounds were initially prepared at a 1 µM final concentration. These compounds were combined with either hMAOA or hMAOB and loaded into a 96-well plate (with eight replicates per test compound), followed by incubation for 30 min at 37 °C in the dark. Subsequently, a 50 µL detection mix was added to each well. This mix contained Amplex® Red, horseradish peroxidase (HRP), and tyramine substrate, all prepared in a reaction buffer. As this enzymatic reaction proceeded continuously, the fluorescence signal was recorded every 30 min (at 0, 30, 60, 90, 120, and 150 min) to track enzymatic kinetics.

[3] = target: T3, BChE (Equus caballus, UniProt P81908); experiment: biochemical; details: for IC50: means ± SD of three experiments, read-out: BChE IC50; for inhibition at 200 µM: read-out: Inhibition Activity 200 µM BChE
T3 construct: purchased Sigma-Aldrich, Hamburg, Germany; host or cells: equine serum
T3 sequence (P81908 whole entry): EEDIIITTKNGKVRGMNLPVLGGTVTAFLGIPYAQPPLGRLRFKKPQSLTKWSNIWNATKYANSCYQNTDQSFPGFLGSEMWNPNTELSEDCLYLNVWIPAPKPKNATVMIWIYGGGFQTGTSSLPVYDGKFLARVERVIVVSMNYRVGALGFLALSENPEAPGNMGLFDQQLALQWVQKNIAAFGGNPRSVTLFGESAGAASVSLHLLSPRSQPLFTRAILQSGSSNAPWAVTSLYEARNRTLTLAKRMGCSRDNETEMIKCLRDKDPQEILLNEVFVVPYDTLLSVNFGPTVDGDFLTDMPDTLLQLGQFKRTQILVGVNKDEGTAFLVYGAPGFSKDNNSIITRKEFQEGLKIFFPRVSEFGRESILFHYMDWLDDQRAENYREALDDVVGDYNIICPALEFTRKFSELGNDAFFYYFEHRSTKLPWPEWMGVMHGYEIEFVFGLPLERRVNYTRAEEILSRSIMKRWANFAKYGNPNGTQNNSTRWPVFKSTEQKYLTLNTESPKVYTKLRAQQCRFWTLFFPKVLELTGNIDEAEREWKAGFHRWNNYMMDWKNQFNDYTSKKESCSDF
Experimental: as §1

[4] = target: T4, recombinant human MAO-A (hMAOA) (Homo sapiens, UniProt P21397); experiment: MAO-A inhibition, fluorometric Amplex UltraRed assay; format: biochemical; details: for inhibition at 1 µM: 1 µM compound, read-out: Inhibition Activity 1 µM MAO-A; for IC50: means ± SD of three experiments, read-out: MAO-A IC50
T4 sequence (P21397 1-527): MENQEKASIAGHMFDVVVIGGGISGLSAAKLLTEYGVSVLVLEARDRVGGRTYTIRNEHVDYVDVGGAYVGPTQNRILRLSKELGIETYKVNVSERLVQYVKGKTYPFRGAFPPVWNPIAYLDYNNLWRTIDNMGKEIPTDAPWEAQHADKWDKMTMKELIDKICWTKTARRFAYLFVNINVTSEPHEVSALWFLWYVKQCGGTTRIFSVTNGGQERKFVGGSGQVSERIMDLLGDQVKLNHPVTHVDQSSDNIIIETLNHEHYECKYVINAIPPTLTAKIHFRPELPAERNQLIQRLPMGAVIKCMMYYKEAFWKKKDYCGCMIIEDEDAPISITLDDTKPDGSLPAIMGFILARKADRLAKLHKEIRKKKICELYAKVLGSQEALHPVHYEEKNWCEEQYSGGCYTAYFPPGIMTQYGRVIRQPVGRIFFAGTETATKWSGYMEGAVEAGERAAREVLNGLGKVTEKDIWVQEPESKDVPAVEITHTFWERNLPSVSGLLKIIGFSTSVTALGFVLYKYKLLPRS
Experimental: as §2

[5] = means ± SD of three experiments

Row | SMILES | inhibition at 200 µM [1] [%] | IC50 [1] [µM] | inhibition at 1 µM [2] [%] | IC50 [2, 5] [µM] | IC50 [3] [µM] | inhibition at 200 µM [3] [%] | inhibition at 1 µM [4] [%] | IC50 [4] [µM] | MAO-B IC50 [2, 5]
1 | Cc1ccc(C)n1CC(C)c1ccc(O)cc1 (stereo not shown) [EM-DC-11, 4-[1-(2,5-dimethyl-1H-pyrrol-1-yl)propan-2-yl]phenol] | 29 ± 2.47 | > 200 | 97 ± 7.1 | > 100 | > 200 | 30.6 ± 2.11 | 97 ± 6.9 | > 100 | 
2 | Cc1ccc(C)n1-c1ccncc1 [EM-DC-12, 4-(2,5-dimethyl-1H-pyrrol-1-yl)pyridine] | 65.7 ± 3.25 | 103 ± 5.85 | 70 ± 7.1 | 0.51 ± 0.1 | 72.8 ± 2.53 | 73.2 ± 1.8 | 70 ± 6.9 | 0.49 ± 0.1 | submicromolar range
3 | Cc1cc(-n2c(C)ccc2C)c2ccccc2n1 [EM-DC-13, 4-(2,5-dimethyl-1H-pyrrol-1-yl)-2-methylquinoline] | 91.2 ± 1.22 | 3.81 ± 0.26 | 80 ± 7.1 | 0.41 ± 0.1 | 10.5 ± 0.17 | 83.81 ± 0.67 | 80 ± 7.1 | 0.38 ± 0.1 | 
4 | Cc1ccc(C)n1C(C)(C)CO [EM-DC-14, 2-(2,5-dimethyl-1H-pyrrol-1-yl)-2-methylpropan-1-ol] | 33.2 ± 2.03 | > 200 | 75 ± 7.1 | 0.46 ± 0.1 | > 200 | 0 | 75 ± 7.1 | 0.44 ± 0.1 | 
5 | Cc1ccc(C)n1C(CS)C(=O)O (stereo not shown) [EM-DC-15, 2-(2,5-dimethyl-1H-pyrrol-1-yl)-3-sulfanylpropanoic acid] | 63.9 ± 1.29 | 131 ± 1.85 | 70 ± 7.1 | 0.53 ± 0.1 | > 200 | 19.1 ± 2.47 | 70 ± 7.2 | 0.55 ± 0.1 | 
6 | Cc1ccc(C)n1CCN1CCOCC1 [EM-DC-16, 4-[2-(2,5-dimethyl-1H-pyrrol-1-yl)ethyl]morpholine] | 85.3 ± 2.43 | 11.8 ± 1.1 | 80 ± 7.1 | 0.47 ± 0.1 | > 200 | 48.8 ± 1.5 | 80 ± 7.3 | 0.46 ± 0.1 | 
7 | Cc1ccc(C)n1-c1ccc(C(=O)O)cc1O [EM-DC-17, 4-(2,5-dimethyl-1H-pyrrol-1-yl)-3-hydroxybenzoic acid] | 0 | > 200 | 99 ± 7.1 | > 100 | > 200 | 3.85 ± 2.99 | 99 ± 6.6 | > 100 | 
8 | Cc1ccc(C)n1-c1ccc(O)c(C(=O)O)c1 [EM-DC-18, 5-(2,5-dimethyl-1H-pyrrol-1-yl)-2-hydroxybenzoic acid] | 16 ± 1.4 | > 200 | 98 ± 7.1 | > 100 | > 200 | 0 | 98 ± 6.5 | > 100 | 
9 | Cc1ccc(C)n1C(Cc1ccc(O)cc1)C(=O)O (stereo not shown) [EM-DC-20, 2-(2,5-dimethyl-1H-pyrrol-1-yl)-3-(4-hydroxyphenyl)propanoic acid] | 0 | > 200 | 75 ± 7.1 | 0.62 ± 0.1 | > 200 | 0 | 75 ± 6.4 | 0.6 ± 0.1 | 
10 | CCC(C(=O)O)n1c(C)ccc1C (stereo not shown) [EM-DC-21, 2-(2,5-dimethyl-1H-pyrrol-1-yl)butanoic acid] | 0 | > 200 | 99 ± 7.1 | > 100 | > 200 | 0 | 99 ± 7.1 | > 100 | 
11 | Cc1ccc(C)n1C(CO)C(=O)O (stereo not shown) [EM-DC-22, 2-(2,5-dimethyl-1H-pyrrol-1-yl)-3-hydroxypropanoic acid] | 0 | > 200 | 99 ± 7.1 | > 100 | > 200 | 0 | 99 ± 7.2 | > 100 | 
12 | Cc1ccc(C)n1C(Cc1ccc(O)c(O)c1)C(=O)O (stereo not shown) [EM-DC-23, 3-(3,4-dihydroxyphenyl)-2-(2,5-dimethyl-1H-pyrrol-1-yl)propanoicacid] | 21.8 ± 2.14 | > 200 | 98 ± 7.1 | > 100 | > 200 | 0 | 98 ± 7.3 | > 100 | 
13 | Cc1ccc(C)n1-c1ccc(C(=O)NCC(=O)O)cc1 [EM-DC-24, [4-(2,5-dimethyl-1H-pyrrol-1-yl)benzamido]acetic acid] | 24.1 ± 4.1 | > 200 | 80 ± 7.1 | 0.59 ± 0.1 | > 200 | 0 | 80 ± 7.1 | 0.58 ± 0.1 | 
14 | Cc1ccc(C)n1C1CCN(Cc2ccccc2)CC1 [EM-DC-25, 1-benzyl-4-(2,5-dimethyl-1H-pyrrol-1-yl)piperidine] | 74.8 ± 1.47 | 87.2 ± 5.7 | 98 ± 7.1 | > 100 | 104 ± 2.5 | 69.8 ± 0.81 | 60 ± 7.1 | 0.33 ± 0.1 | 
15 | CCC(C)Cn1c(C)ccc1C (stereo not shown) [EM-DC-26, 2,5-dimethyl-1-(2-methylbutyl)-1H-pyrrole] | 12.8 ± 3.54 | > 200 | 97 ± 7.1 | > 100 | 106.5 ± 0.7 | 68.2 ± 1.6 | 97 ± 7.1 | > 100 | 
